PubChem BioAssay AID504344 (Broad Institute, 2011)
Calls of active or inactive are those of the source.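 How the source made its calls: active means fitted curve reaches 10% of the positive control caspase activation at or below the top valid tested dose; inactive means signal shifts the opposite way, plus the rest.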

System: Bax/Bak-/- MEF caspase activation, CaspaseGlo luminescence, 3 h
Test: caspase activation in Bax/Bak-null MEFs, dose response, counter-screen for Bcl2-A1 inhibitor project, cell-based, mouse embryonic fibroblasts, dry powder, set 2 (AID 504344)
Settings: not given

SMILES	AC10
Cc1ccc(Sc2c([N+](=O)[O-])c(=O)oc3ccccc23)cc1	> 35 µM (inactive)

System: not listed separately
Test: as above
Settings: Bax/Bak-/- MEF caspase activation, CaspaseGlo luminescence, 3 h; at 35 µM (top of the series)

SMILES	caspase activation
O=c1oc2ccccc2c(Sc2ccccc2)c1[N+](=O)[O-]	-0.438% (inactive)
C/C1=C/C(=O)O[C@@H]2C[C@@H](CC[C@H](C)/C=C\CC1)O[C@@](O)(C1CSC(=O)N1)C2 (stereo partly specified)	0.173% (inactive)
Cn1c(=O)c([N+](=O)[O-])c(Oc2ccccc2)c2ccccc21	0.272% (inactive)
O=[N+]([O-])c1cnc2ccccc2c1Sc1ccccc1	2.51% (inactive)
Cc1ccc(Sc2c([N+](=O)[O-])cnc3ccccc23)cc1	3.45% (inactive)
O=c1oc2ccccc2c(N2CCCCC2)c1[N+](=O)[O-]	-0.245% (inactive)
Cc1ccc(Sc2cc(=O)n(C)c3ccccc23)cc1	-0.817% (inactive)
O=C(Oc1cccc(/C=N/Nc2nc(Nc3ccccc3)nc(N3CCOCC3)n2)c1)c1ccco1	0.026% (inactive)
Cn1c(=O)c([N+](=O)[O-])c(Cl)c2ccccc21	0.515% (inactive)
Cc1ccc(Sc2c([N+](=O)[O-])c(=O)n(C)c3ccccc23)cc1	1.18% (inactive)
CCSc1c([N+](=O)[O-])c(=O)oc2ccccc12	0.365% (inactive)
O=c1oc2ccccc2c(Nc2cc(Cl)cc(Cl)c2)c1[N+](=O)[O-]	-0.079% (inactive)
O=c1oc2ccccc2c(Cl)c1[N+](=O)[O-]	-0.981% (inactive)
CCOC(=O)N1CCN(c2c([N+](=O)[O-])c(=O)n(C)c3ccccc23)CC1	-0.062% (inactive)
Cc1ccc(Nc2c([N+](=O)[O-])c(=O)oc3ccccc23)cc1	-0.021% (inactive)
CCOCCCNc1c([N+](=O)[O-])c(=O)n(C)c2ccccc12	0.166% (inactive)
Cc1ccc(Nc2c([N+](=O)[O-])c(=O)n(C)c3ccccc23)cc1	0.3% (inactive)
Cn1c(=O)c([N+](=O)[O-])c(-n2cnc3ccccc32)c2ccccc21	0.662% (inactive)
CN1C(=O)C(C)(C)N(Cc2ccccc2)c2ccccc21	-0.187% (inactive)
Cn1c(=O)c([N+](=O)[O-])c(Nc2ccc(Cl)cc2)c2ccccc21	0.654% (inactive)
